Several values for one entry are separate records, joined by “and”; a condition that tells them apart may be missing. Equal values may be shown once. Positions of bridges follow the written chain, without caps; N, C: chain ends. Non-standard residues stand in square brackets, D forms with d. Residues, ends and D or L forms follow the SMILES beside them. *: point of attachment. DOTA = O=C(O)CN1CCN(CC(=O)O)CCN(CC(=O)*)CCN(CC(=O)O)CC1; Cha = N[C@@H](CC1CCCCC1)C(=O)O
Experiments:
[1] = biological target: T1, uPAR•uPA interaction (Homo sapiens, UniProt Q03405); test: SPR competition assay of the uPAR•uPA interaction; format: binding; details: for IC50: competition of uPAR•uPA interaction, 2 nM uPAR, 20 °C, n = 3
T1 construct: Recombinant human uPAR^1–283 was expressed; made in house; host or cells: Drosophila melanogaster S2 cells
T1 sequence (Q03405 23-305): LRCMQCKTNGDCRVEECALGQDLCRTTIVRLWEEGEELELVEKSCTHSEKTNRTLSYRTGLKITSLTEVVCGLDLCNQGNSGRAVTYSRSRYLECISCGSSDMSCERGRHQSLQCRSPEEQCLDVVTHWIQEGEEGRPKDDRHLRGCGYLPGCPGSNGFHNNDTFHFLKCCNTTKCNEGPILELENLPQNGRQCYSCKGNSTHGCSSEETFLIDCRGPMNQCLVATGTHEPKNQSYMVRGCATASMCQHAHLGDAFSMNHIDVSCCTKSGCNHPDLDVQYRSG
Method: The IC50-values of antagonistic peptides on the uPAR•uPA interaction were determined with SPR using a Biacore T200™ or Biacore 3000™ instruments (Cytiva) essentially as described[4],[56],[77]. In brief, we immobilized high levels of pro-uPA^S356A (0.1 pmol pro-uPA/mm^2) on a CM5 sensor chip via amine coupling. The experiments were conducted by injecting 2 nM uPAR in presence of a threefold dilution series of a given antagonistic peptide for 300 s with a flow rate of 50 µL/min at 20 °C. The high immobilization levels result in binding conditions that are entirely controlled by mass transport limitations (MTL). Accordingly, the observed association rates (vobs) are directly proportional to the concentrations of binding-active uPAR in solution. To determine the IC50, we also measured a standard curve of uPAR binding (a twofold dilution series of 0.06 to 2 nM uPAR, linear due to MTL). The running buffer was 10 mM HEPES, 150 mM NaCl, 3 mM EDTA, and 0.05% (v/v) surfactant P-20 at pH 7.4, and the regeneration buffer was 0.1 M acetic acid in 0.5 M NaCl.

[2] = biological target: T2, uPAR (Homo sapiens, UniProt Q03405); test: SPR real-time binding kinetics, peptides in solution and immobilised uPAR; details: for kon: read-out: kon
T2 construct: Recombinant human uPAR^1–283 was expressed; made in house; host or cells: Drosophila melanogaster S2 cells
T2 sequence (Q03405 23-305): as above
Method: The real-time binding kinetics of uPAR•peptide interactions were measured with SPR using a Biacore T200™(Cytiva); essentially as described in[56],[77]. In brief, uPAR was covalently immobilised on a CM5 sensor chip via amine coupling resulting in a surface density of 1157–1581 RU (~ 33–44 fmol/mm^2). The binding kinetics for the peptides to immobilised uPAR were measured using a single cycle protocol. In this setup, peptides were injected as five serial two-fold dilutions with a contact time of 200 s. After the last analyte injection, the dissociation time was set to 1000 s. The sensor chip was regenerated with two consecutive injections of 0.1 M acetic acid in 0.5 M NaCl. All experiments were conducted at 20 °C with a flow rate of 50 µL/min in 10 mM HEPES, 150 mM NaCl, 3 mM EDTA, and 0.05% (v/v) surfactant P-20 at pH 7.4. The kinetic rate constants (kon and koff) were determined by non-linear regression fitting of the curves to the simple bimolecular interaction model (BiacoreT200 Evaluation™ 3.0 software).

[3] = biological target: T2, uPAR; test: Nano-DSF thermal stability of uPAR•peptide complexes; details: for Tm (apparent melting temperature of uPAR•peptide complex): 15 µM uPAR, 30 µM peptide, PBS pH 7.4, n = 3; for decrease in apparent Tm on introduction of spacer: (4) vs (1), (6) vs (3)
Method: The thermal stability of the uPAR•peptide complexes was analyzed with Nano-DSF using a Prometheus NT.48™ (Nanotemper). uPAR (15 µM) was mixed with twofold excess of peptide (30 µM) in PBS pH 7.4 and incubated for 15 min at RT to ensure complex formation. Samples containing either 15 µM uPAR or 30 µM of each peptide were included as controls. The samples were loaded into standard capillaries and in triplicates. To unfold the proteins, the samples were exposed to an increasing temperature gradient from 20 to 95 °C with a ramping rate of 1 °C/min. The excitation power was set to 50% (Ex.280 nm) and the fluorescence emission collected at 330 nm and 350 nm. The melting temperatures of the complexes were determined in the PR.ThermControl software (Nanotemper) from the first derivative of the fluorescence ratio (350 nm/330 nm).

[4] = test system: uPAR expression in U87MG tumor-bearing mice; format: in vivo; details: [64Cu]Cu-DOTA peptides, PET scanning or ex vivo counting of resected organs
Method: Five weeks old female NMRI nude mice were purchased from Janvier (Le Genest-Saint-Isle, France) and housed in groups to acclimatize for a week upon arrival with light/dark period of 12/12 h and under controlled environmental conditions (temperature: 20–22 °C, relative humidity: 55%). Access to fresh water and standard pellet diet was provided ad libitum. Human glioblastoma cancer cell line U87MG (ATCC, Manassas, USA) was cultured in Dulbecco’s modified eagle medium (DMEM) supplemented with 10% fetal bovine serum and 1% penicillin–streptomycin at 37 °C and 5% CO2. Cells were harvested by trypsinization at a confluence of 70–90%. Mice were anesthetized (3–4% sevoflurane in 65% N2 and 35% O2) and ~ 4 × 10^6 U87MG cells resuspended in 100 μL PBS were injected subcutaneously into the right flank. Tumors were allowed to grow for 20 days. Tumor sizes were monitored using caliper measurements (Volume = 0.5 x (Length x Width^2)).
Tumor-bearing mice (tumor volumes (mean ± SD) of 221 ± 105 mm^3) were grouped (n = 6 per group) and anesthetized (3–4% sevoflurane in 65% N2 and 35% O2) prior to imaging. The four different [^64Cu]Cu–DOTA conjugated peptides were administered via tail vein injections of 5.4 ± 0.4 MBq corresponding to 118 ± 7 pmol (1b), 111 ± 4 pmol (8b), 92 ± 3 pmol (9b), and 75 ± 4 pmol (11b) (mean ± SD). Whole-body imaging consisting of a CT acquisition followed by a static PET acquisition was performed on an Inveon® small animal imaging system (Siemens Medical Systems, Malvern, PA, USA). PET/CT imaging was performed 1 h, 22 h, and 46 h post-injection (p.i.) of tracer with a 5 min, 10 min and 15 min PET scan, respectively. During scans the animals were placed on a heated bedding system to keep the body temperature stable. The PET acquisition was performed with an energy window of 350–650 keV and a time resolution of 6 ns, and data was corrected for dead time and decay. The CT scan consisted of 360 projections, with a tube voltage of 65 kV, a tube current of 500 μA and an exposure time of 400 ms per projection. Sinograms from PET scans were reconstructed using a 3-dimensional maximum a posteriori algorithm with correction for scatter and attenuation (CT-based). PET and CT images were co-registered and analyzed using Inveon Research Workplace software (Siemens Medical Solutions). The mean percentage of injected dose per grams (%ID/g) in different tissues was extracted by manually creating regions of interest (ROI) on fused PET/CT images.

[5] = biological target: uPAR; details: read-out: KD of the uPA•uPAR interaction; cited from earlier work
[6] = single cycle SPR, immobilised uPAR, 20 °C
[7] = single cycle SPR, immobilised uPAR, 20 °C, 1:1 model
[8] = DOTA-conjugated peptides with spacer, compared to (4b)
[9] = [63Cu]-DOTA labelled peptides, single-cycle SPR

CC(C)C[C@@H]1NC(=O)[C@H](Cc2ccc(O)cc2)NC(=O)[C@H](NC(=O)[C@@H](CO)NC(=O)[C@H](Cc2ccccc2)NC(=O)[C@H](CC2CCCCC2)NC(=O)[C@H](CC(=O)O)NC(=O)CNC(=O)CNC(=O)[C@@H](CO)NC(=O)CNC(=O)[C@H](CCC(=O)O)NC(=O)[C@H](CCC(=O)O)NC(=O)CN2CCN(CC(=O)O)CCN(CC(=O)O)CCN(CC(=O)O)CC2)CSSC[C@@H](C(=O)O)NC(=O)[C@H](Cc2c[nH]c3ccccc23)NC1=O [6b] ({DOTA}-EEG[dS]GGD[Cha]F[dS][dC]YLWC-OH; disulfide 11-15)
IC50 [1]: 15.8 ± 0.4 nM
koff [2, 6]: 0.00977 ± 1e-05 s⁻¹
Kd [2, 7]: 20.3 nM
kon [2, 6]: 481000 ± 1000 M⁻¹ s⁻¹
Tm (apparent melting temperature of uPAR•peptide complex) [3]: 61.3 ± 0.4 °C
increase in apparent Tm [3, 8]: 6–14 °C

CC(C)C[C@H](NC(=O)[C@H](Cc1ccc(O)cc1)NC(=O)[C@@H](CCCNC(=N)N)NC(=O)[C@@H](CO)NC(=O)[C@H](Cc1ccccc1)NC(=O)[C@H](CC1CCCCC1)NC(=O)[C@H](CC(=O)O)NC(=O)CN1CCN(CC(=O)O)CCN(CC(=O)O)CCN(CC(=O)O)CC1)C(=O)N[C@@H](Cc1c[nH]c2ccccc12)C(=O)N[C@@H](CO)C(N)=O [8b]
IC50 of DOTA-conjugated peptide compared to unconjugated peptide ([1]; (1b) vs (1), (8b) vs (8)): four to fivefold higher
IC50 [1]: 8.2 ± 0.1 nM
Kd [2, 9]: 13.9 nM
koff [2, 9]: 0.00425 ± 1e-05 s⁻¹
reduction of affinity on DOTA-conjugation ([2]; real-time binding kinetics, vs unconjugated peptides): 8–11 fold
koff [2, 6]: 0.002064 ± 2e-06 s⁻¹
Kd [2, 7]: 4.22 nM
kon [2, 6]: 490000 ± 1000 M⁻¹ s⁻¹
Tm (apparent melting temperature of uPAR•peptide complex) [3]: ~ 70 °C
increase in apparent Tm ([3]; DOTA-conjugated peptides, compared to (1b)): approximately 11 °C
tumor uptake and imaging contrast, (1b) compared with (8b) [4]: no significant differences

CC(C)C[C@H](NC(=O)[C@H](Cc1ccc(O)cc1)NC(=O)[C@@H](CCCNC(=N)N)NC(=O)[C@@H](CO)NC(=O)[C@H](Cc1ccccc1)NC(=O)[C@H](CC1CCCCC1)NC(=O)[C@H](CC(=O)O)NC(=O)CNC(=O)CNC(=O)[C@@H](CO)NC(=O)CNC(=O)[C@H](CCC(=O)O)NC(=O)[C@H](CCC(=O)O)NC(=O)CN1CCN(CC(=O)O)CCN(CC(=O)O)CCN(CC(=O)O)CC1)C(=O)N[C@@H](Cc1c[nH]c2ccccc12)C(=O)N[C@@H](CO)C(N)=O [10b] ({DOTA}-EEG[dS]GGD[Cha]F[dS][dR]YLWS-NH2)
IC50 [1]: 4.8 ± 0.2 nM
koff [2, 6]: 0.001367 ± 1e-06 s⁻¹
Kd [2, 7]: 3.18 nM
kon [2, 6]: 429700 ± 400 M⁻¹ s⁻¹
Tm (apparent melting temperature of uPAR•peptide complex) [3]: 66.2 ± 0.3 °C
increase in apparent Tm [3, 8]: 6–14 °C

CC(C)C[C@H](NC(=O)[C@H](Cc1ccc(O)cc1)NC(=O)[C@@H](CCCNC(=N)N)NC(=O)[C@@H](CO)NC(=O)[C@H](Cc1ccccc1)NC(=O)[C@H](CC1CCCCC1)NC(=O)[C@H](CC(=O)O)NC(=O)CNC(=O)CNC(=O)[C@@H](CO)NC(=O)CNC(=O)[C@H](CCC(=O)O)NC(=O)[C@@H](N)CCC(=O)O)C(=O)N[C@@H](Cc1c[nH]c2ccccc12)C(=O)N[C@@H](CO)C(=O)O [compound 4] (H-EEG[dS]GGD[Cha]F[dS][dR]YLWS-OH; N-terminus assumed)
fold increase in the IC50-value ([1]; compared to AE105 (1)): 2.7 fold
koff [2, 6]: 0.00558 ± 1e-05 s⁻¹
kon [2, 6]: 280000 ± 1000 M⁻¹ s⁻¹
Tm (apparent melting temperature of uPAR•peptide complex) [3]: 55.2 °C and 55.2 ± 0.2 °C
decrease in apparent Tm on introduction of spacer [3]: 10 °C

CC(C)C[C@@H]1NC(=O)[C@H](Cc2ccc(O)cc2)NC(=O)[C@H](NC(=O)[C@@H](CO)NC(=O)[C@H](Cc2ccccc2)NC(=O)[C@H](CC2CCCCC2)NC(=O)[C@H](CC(=O)O)NC(=O)CNC(=O)CNC(=O)[C@@H](CO)NC(=O)CNC(=O)[C@H](CCC(=O)O)NC(=O)[C@@H](N)CCC(=O)O)CSSC[C@@H](C(=O)O)NC(=O)[C@H](Cc2c[nH]c3ccccc23)NC1=O [compound 6] (H-EEG[dS]GGD[Cha]F[dS][dC]YLWC-OH; disulfide 11-15; N-terminus assumed)
increase in potency ([1]; compared to (4)): 1.4 fold
increase in potency ([1]; compared to (5)): 11 fold
association rate constant (kon) compared to (4) [2]: improved ~ twofold
dissociation rate constant (koff) compared to (4) [2]: ~ twofold impairment
koff [2, 6]: 0.01033 ± 3e-05 s⁻¹
kon [2, 6]: 611000 ± 3000 M⁻¹ s⁻¹
Tm (apparent melting temperature of uPAR•peptide complex) [3]: 60.6 °C and 60.6 ± 0.7 °C
decrease in apparent Tm on introduction of spacer [3]: 10 °C
increase in thermal stability (apparent Tm) ([3]; disulfide-bonded peptide compared to linear peptide (4)): 5 °C

CC(C)C[C@H](NC(=O)[C@H](Cc1ccc(O)cc1)NC(=O)[C@@H](CCCNC(=N)N)NC(=O)[C@@H](CO)NC(=O)[C@H](Cc1ccccc1)NC(=O)[C@H](CC1CCCCC1)NC(=O)[C@H](CC(=O)O)NC(=O)CNC(=O)CNC(=O)[C@@H](CO)NC(=O)CNC(=O)[C@H](CCC(=O)O)NC(=O)[C@@H](N)CCC(=O)O)C(=O)N[C@@H](Cc1c[nH]c2ccccc12)C(=O)N[C@@H](CO)C(N)=O [compound 10] (H-EEG[dS]GGD[Cha]F[dS][dR]YLWS-NH2; N-terminus assumed)
fold increase in potency on C-terminal amidation ([1]; (8) vs (1) and (10) vs (4)): 5.6 fold
koff [2, 6]: 0.001497 ± 2e-06 s⁻¹
kon [2, 6]: 595000 ± 1000 M⁻¹ s⁻¹
Tm (apparent melting temperature of uPAR•peptide complex) [3]: ~ 65 °C

urokinase-type plasminogen activator [uPA]
Kd [5]: 0.02 nM

Reference: article PMC10567728, “Targeted imaging of uPAR expression in vivo with cyclic AE105 variants” (Scientific Reports, 2023)
